In one series the target is T1, human CB1 receptor (Homo sapiens, UniProt P21554).
T1 construct: U373MG cells naturally expressing the human CB1 receptor; endogenous in cells; host or cells: U373MG cells
As to the kind of experiment: intracellular cyclic AMP functional test in U373MG cells (HTRF cAMP Dynamic Kit). Type of series: cell-based. To be noted: U373MG cells naturally expressing the human CB1 receptor. How it is done:
The compounds according to the invention have been the subject of pharmacological assays which make it possible to determine the activity with respect to human CB1-type cannabinoid receptors. The effectiveness of the compounds of formula (I) was determined in a functional test in which the activity of the CB1 cannabinoid receptors is measured (intracellular cyclic AMP test). The test for detecting intracellular cyclic AMP in U373MG cells naturally expressing the human CB1 receptor was carried out as described in the reference: Bouaboula et al., 1995, J. Biol. Chem. 270:13973-13980. The HTRF cAMP Dynamic Kit from CisBio was used to quantify the intracellular cyclic AMP. In this test, the IC50 values are between 0.001 μM and 1 μM.
(In general: In TR-FRET formats the signal depends on donor and acceptor labels being close together.)

In the next series the target is T2, CB1 cannabinoid receptor (Mus musculus, UniProt P47746).
T2 construct: male CD1 mice receive the test product per os; from tissue; host or cells: whole animal, male CD1 mice (gastrointestinal tract)
The experiment in a line: inhibition of gastrointestinal transit induced by racemic CP55,940 in mice (charcoal bolus). Type of series: in vivo. To be noted: male CD1 mice, 3 hours after administration of the product, CP55,940 0.15 mg/kg ip. How it is done: Their antagonist activity was also shown by means of the model of inhibition of gastrointestinal transit induced by racemic CP55,940 (1RS, 3RS, 4RS)-3-[hydroxy-2-(1,1-dimethylheptyl)phenyl]-4-(3-hydroxypropyl)cyclohexan-1-ol) in mice, according to the method described by Rinaldi-Carmona et al., J. Pharmacol. Exp. Ther. 2004, 310, 905-914. Briefly, male CD1 mice receive the test product per os 30 minutes or 2 hours before administration of the racemic CP55,940 agonist ((1RS, 3RS, 4RS)-3-[hydroxy-2-(1,1-dimethylheptyl)phenyl]-4-(3-hydroxypropyl)cyclohexan-1-ol) (0.15 mg/kg ip in 10% cremophor). After a further 30 minutes, the animals receive a charcoal bolus po. Thirty minutes later, the animals are sacrificed by euthanasia (CO2/O2) and the intestine is dissected. The progression of the charcoal bolus in the intestine is expressed as percentage of the total length of the intestine.

T1 sequence (P21554 whole entry): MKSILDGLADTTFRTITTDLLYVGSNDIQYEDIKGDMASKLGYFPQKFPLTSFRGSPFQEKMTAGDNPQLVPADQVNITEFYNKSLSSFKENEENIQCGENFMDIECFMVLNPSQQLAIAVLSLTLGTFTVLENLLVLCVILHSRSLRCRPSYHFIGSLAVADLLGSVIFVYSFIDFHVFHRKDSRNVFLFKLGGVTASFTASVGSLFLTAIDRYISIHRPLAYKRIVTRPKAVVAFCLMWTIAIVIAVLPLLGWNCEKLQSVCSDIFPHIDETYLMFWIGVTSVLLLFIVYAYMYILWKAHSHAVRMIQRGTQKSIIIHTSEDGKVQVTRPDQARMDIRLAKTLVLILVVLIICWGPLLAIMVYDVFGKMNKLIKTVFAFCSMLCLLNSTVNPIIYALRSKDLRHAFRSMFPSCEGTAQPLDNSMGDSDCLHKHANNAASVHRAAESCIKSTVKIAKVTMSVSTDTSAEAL
T2 sequence (P47746 whole entry): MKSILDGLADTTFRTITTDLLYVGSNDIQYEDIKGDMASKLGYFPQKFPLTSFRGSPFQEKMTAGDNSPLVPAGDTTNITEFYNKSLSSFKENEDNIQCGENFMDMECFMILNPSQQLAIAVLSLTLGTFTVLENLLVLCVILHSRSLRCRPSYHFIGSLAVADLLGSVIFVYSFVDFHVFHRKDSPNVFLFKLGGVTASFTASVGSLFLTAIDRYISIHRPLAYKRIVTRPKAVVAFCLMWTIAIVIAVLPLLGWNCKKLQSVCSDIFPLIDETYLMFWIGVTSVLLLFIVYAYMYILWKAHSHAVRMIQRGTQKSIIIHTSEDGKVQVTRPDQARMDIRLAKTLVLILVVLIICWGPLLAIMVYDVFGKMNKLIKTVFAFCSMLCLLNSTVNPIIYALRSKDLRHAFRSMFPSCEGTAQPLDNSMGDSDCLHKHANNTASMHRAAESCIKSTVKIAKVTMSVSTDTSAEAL

The melting point is the temperature of the solid-liquid transition. `CS(=O)(=O)N(c1cccc(C(=O)NC2CCS(=O)(=O)CC2)c1)C1CN(C(c2ccc(Cl)cc2)c2ccc(Cl)cc2)C1` [compound 11, 3-[{1-[bis(4-chlorophenyl)methyl]azetidin-3-yl}(methylsulphonyl)amino]-N-(1,1-dioxidotetrahydro-2H-thiopyran-4-yl)benzamide]: the melting point was 270 °C.
`CCN1CCCC1CNC(=O)c1cccc(N(C2CN(C(c3ccc(Cl)cc3)c3ccc(Cl)cc3)C2)S(C)(=O)=O)c1` (single isomer, unassigned; (+)) [Compound No. 6, (+)-3-[{1[bis(4-Chlorophenyl)methyl]azetidin-3-yl}(methyl-sulphonyl)amino]-N-{[1-ethylpyrrolidin-2-yl]methyl}benzamide] gave a melting point of 122 °C.
For orientation: IC50 means the midpoint of a concentration-inhibition curve. Higher therefore signals weaker potency in that assay. Turning to `CS(=O)(=O)N(c1cccc(C(=O)NCCN2CCNC2=O)c1)C1CN(C(c2ccc(Cl)cc2)c2ccc(Cl)cc2)C1` [compound 9, 3-[{1-[bis(4-chlorophenyl)methyl]azetidin-3-yl}(methylsulphonyl)amino]-N-[2-(2-oxoimidazolidin-1-yl)ethyl]benzamide], the melting point was determined as 130 °C. This compound also showed an IC50 at human CB1 receptor of 130 nM.
In the case of `CS(=O)(=O)N(c1cc(F)cc(C(=O)NC2CCNC2=O)c1)C1CN(C(c2ccc(Cl)cc2)c2ccc(Cl)cc2)C1` (single isomer, unassigned; (-)) [Compound No. 16, (−)-3-[{1-[bis(4-Chlorophenyl)methyl]azetidin-3-yl}(methylsulphonyl)amino]-5-fluoro-N-[2-oxopyrrolidin-3-yl]benzamide], at human CB1 receptor, 7 nM corresponded to half-maximal inhibition (IC50).
In turn, `CS(=O)(=O)N(c1cccc(C(=O)NC2CCS(=O)(=O)C2)c1)C1CN(C(c2ccc(Cl)cc2)c2ccc(Cl)cc2)C1` (centres unmarked) [Compound No. 2, 3-[{1-[bis(4-Chlorophenyl)methyl]azetidin-3-yl}(methylsulphonyl)amino]-N-(1,1-dioxidotetrahydrothiophen-3-yl)benzamide] had an IC50 against human CB1 receptor of 47 nM. The “percentage inhibition, gastrointestinal transit model” value on CB1 cannabinoid receptor (2 mg/kg per os) amounted to 57%.
Compound `CS(=O)(=O)N(c1cc(F)cc(C(=O)NC2CCNC2=O)c1)C1CN(C(c2ccc(Cl)cc2)c2ccc(Cl)cc2)C1` (centres unmarked) [Compound No. 14, 3-[{1[bis(4-Chlorophenyl)methyl]azetidin-3-yl}(methyl-sulphonyl)amino]-5-fluoro-N-(2-oxopyrrolidin-3-yl)benzamide] came in with an IC50 against human CB1 receptor of 9 nM.
In turn, `CCN1CCCC1CNC(=O)c1cccc(N(C2CN(C(c3ccc(Cl)cc3)c3ccc(Cl)cc3)C2)S(C)(=O)=O)c1` (single isomer, unassigned; (-)) [Compound No. 5, (−)-3-[{1-[bis(4-Chlorophenyl)methyl]azetidin-3-yl}(methyl-sulphonyl)amino]-N-{[1-ethylpyrrolidin-2-yl]methyl}benzamide] came in with a melting point of 128 °C. For the same compound, the “percentage inhibition, gastrointestinal transit model” value at CB1 cannabinoid receptor (1 mg/kg per os) stood at 39%.
Take `CS(=O)(=O)N(c1cccc(C(=O)NC2CCSCC2)c1)C1CN(C(c2ccc(Cl)cc2)c2ccc(Cl)cc2)C1` [compound 10, 3-[{1-[bis(4-chlorophenyl)methyl]azetidin-3-yl}(methylsulphonyl)amino]-N-(tetrahydro-2H-thiopyran-4-yl)benzamide]: the melting point came out at 210 °C.

For the origin of these results see patent publication US20110183961A1, “AZETIDINE POLYSUBSTITUTED COMPOUNDS, PREPARATION THEREOF, AND THERAPEUTIC APPLICATION THEREOF” (SANOFI-AVENTIS, priority 2008, published 2011).
